These results are taken from ChEMBL document CHEMBL1137714, “Primaquine revisited six decades after its discovery” (Eur J Med Chem, 2009).

Data set [1] is described as follows: Tmax in po dosed human. Particulars: in vivo. In kind it is ADME, organism-based.
Data set [2] addresses Acetylcholinesterase (Homo sapiens) (UniProt P22303). The experiment in a line: Inhibition of human erythrocyte AChE.
For data set [3], the species on record is Homo sapiens. Description: Toxicity in human assessed as incidence of abdominal cramps at 22.5 to 30 mg/day. In kind it is organism-based, Abdomen. Conditions: in vivo.

Sequence of Acetylcholinesterase (Homo sapiens) (P22303 whole entry): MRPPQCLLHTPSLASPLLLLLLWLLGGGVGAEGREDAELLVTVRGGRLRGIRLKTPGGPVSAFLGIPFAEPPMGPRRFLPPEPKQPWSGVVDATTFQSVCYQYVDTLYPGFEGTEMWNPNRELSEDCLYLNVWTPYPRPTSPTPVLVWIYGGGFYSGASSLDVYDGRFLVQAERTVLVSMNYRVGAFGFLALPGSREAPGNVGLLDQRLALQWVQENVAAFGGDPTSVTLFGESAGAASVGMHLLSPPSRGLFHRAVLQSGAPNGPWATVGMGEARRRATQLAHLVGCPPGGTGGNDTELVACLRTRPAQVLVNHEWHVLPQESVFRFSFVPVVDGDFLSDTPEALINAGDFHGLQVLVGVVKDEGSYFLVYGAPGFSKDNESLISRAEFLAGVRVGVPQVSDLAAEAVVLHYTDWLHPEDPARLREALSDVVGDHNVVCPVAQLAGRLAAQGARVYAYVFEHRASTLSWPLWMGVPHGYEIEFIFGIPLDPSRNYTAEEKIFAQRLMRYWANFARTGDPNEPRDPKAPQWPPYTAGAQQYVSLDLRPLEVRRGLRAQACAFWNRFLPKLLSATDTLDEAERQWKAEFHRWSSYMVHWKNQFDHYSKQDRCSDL

By Tmax is commonly meant the time from dosing to the highest level. Take `COc1cc(NC(C)CCCN)c2ncccc2c1` (stereo not drawn) [PRIMAQUINE]: the Tmax in data set [1] is 12 h. Moreover, the IC33 in data set [2] came to 30 µM. For the same compound, the Activity in data set [3] was found to be 10%.
